In patent US20250059139A1, “COMPOUNDS FOR TREATMENT OF CANCER” (THE JOHNS HOPKINS UNIVERSITY, priority 2021, published 2025):

Tests used:
Water solubility = type: physicochemical
HDAC4-NCoR1 complex = target: T1, HDAC4-NCoR1 complex (Homo sapiens, UniProt P56524); experiment: SPR inhibition of HDAC4-NCoR1 interaction; type: binding
T1 construct: Full-length (fl) [A.A. 1-1082] recombinant human histone deacetylase 4 (rhHDAC4) protein; FLAG (N); GST (given as 'with or without'); host or cells: HEK293-T (HDAC4)
T1 sequence (P56524 whole entry, one chain of several): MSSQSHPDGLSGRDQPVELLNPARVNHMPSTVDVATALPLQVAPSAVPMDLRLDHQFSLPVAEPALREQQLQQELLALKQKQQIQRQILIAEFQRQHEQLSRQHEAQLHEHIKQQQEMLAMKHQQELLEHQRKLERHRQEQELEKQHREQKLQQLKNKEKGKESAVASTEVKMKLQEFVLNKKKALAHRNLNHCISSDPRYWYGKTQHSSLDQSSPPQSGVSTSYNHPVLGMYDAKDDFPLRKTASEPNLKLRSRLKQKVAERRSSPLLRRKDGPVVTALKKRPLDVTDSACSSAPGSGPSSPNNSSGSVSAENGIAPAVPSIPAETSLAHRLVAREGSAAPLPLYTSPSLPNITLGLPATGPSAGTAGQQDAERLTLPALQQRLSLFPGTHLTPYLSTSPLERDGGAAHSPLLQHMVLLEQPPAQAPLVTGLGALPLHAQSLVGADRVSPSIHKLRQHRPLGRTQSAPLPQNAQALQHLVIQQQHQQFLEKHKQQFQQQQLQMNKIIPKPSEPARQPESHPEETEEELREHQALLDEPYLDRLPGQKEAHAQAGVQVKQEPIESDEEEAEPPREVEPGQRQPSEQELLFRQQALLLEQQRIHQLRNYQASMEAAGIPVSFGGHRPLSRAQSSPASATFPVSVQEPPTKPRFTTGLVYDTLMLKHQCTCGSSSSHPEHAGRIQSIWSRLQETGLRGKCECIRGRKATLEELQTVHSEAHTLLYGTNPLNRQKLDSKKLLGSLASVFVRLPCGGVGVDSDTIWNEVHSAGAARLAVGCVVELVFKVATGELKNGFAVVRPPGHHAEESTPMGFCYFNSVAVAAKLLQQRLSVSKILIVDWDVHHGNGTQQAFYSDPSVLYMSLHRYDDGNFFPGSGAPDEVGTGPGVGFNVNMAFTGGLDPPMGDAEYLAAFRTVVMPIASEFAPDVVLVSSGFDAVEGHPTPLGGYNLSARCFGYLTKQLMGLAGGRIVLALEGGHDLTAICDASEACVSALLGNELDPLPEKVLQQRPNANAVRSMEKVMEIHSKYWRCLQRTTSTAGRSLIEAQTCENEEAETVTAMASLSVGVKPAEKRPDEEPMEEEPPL
Procedure: Surface Plasmon Resonance (SPR) Binding Analysis. SPR analysis was performed on the Biacore 3000™ system using CM5 sensor chips, certified buffers (HBS-P—10 mM HEPES, 0.15 M NaCl, pH 7.4, containing 0.005% v/v Surfactant P; HBS-EP-HBS-P with 3 mM EDTA) and reagents for immobilization and surface regeneration from Biacore, GE Healthcare, Uppsala Sweden. Evaluation of sensorgrams was performed using the BIA-evaluation Software version 4.1 and GraphPad Prism 4. Buffer of protein reagents were changed to HBS-P on Zeba spin desalting columns (Thermo Scientific) prior to being used in SPR analysis (Isaacs 2013).
C. Inhibition of HDAC4-NCoR1 interaction by TasQ. The interaction between HDAC4 and NCoR1 was studied either by injecting NCoR over immobilized HDAC4 or with an alternative orientation where HDAC4 was passed over a surface with covalently coupled NCoR1. Whether TasQ can inhibit the formation of the functional HDAC4-NCoR1 complex was tested by pre-incubation with NCoR1 or HDAC4.
To confirm that TasQ inhibits formation of the functional complex between HDAC4 and NCoR1, fl-NCoR1 in solution was injected over immobilized fl-HDAC4 after pre-incubation with TasQ in solution at concentrations ranging from 1 to 100 μM (FIG. 19). […] TasQ in solution inhibits this strong interaction by 50% at 10 μM (FIG. 20). […]

[1] = tested on: TRAMP-C2 mouse prostate cancer; experiment: In vivo growth of TRAMP-C2 allografts in C57BL/6J wild type vs. NOX2-, iNOS-, S100A9-KO hosts; details: daily oral 10 mg/kg/d over a 3-week period; wild type and KO hosts
Source text: Prostate Cancer Models. The source, history, and characteristics of the human prostate cancer cell lines and PDXs used, as well as cell culture conditions for their in vitro maintenance and the in vivo protocol for xenograft growth in triple immune-deficient NSG (i.e. NOD.Cg-PrkdcScidIl2rgtmlWji/Szj), adult (>8 week old) male mice obtained from the Sidney Kimmel Comprehensive Cancer Center (SKCCC) Animal Core Facility are described previously (Isaacs 2013; Brennen et al. JCI Insight. 2021, 6(8):e146827; Zhu et al. Oncogene 2020, 39(45): 6935-6949). […] In vitro growth curves were determined as described (Isaacs 2013). In vivo growth response to oral daily TasQ (10 mg/kg/d) of TRAMP-C2 mouse prostate cancers was evaluated in C57BL/6J syngeneic wild type vs. NOX-2 vs. iNOS null male mice obtained from Jackson Laboratory (Bar Harbor, ME). Growth response to oral daily TasQ (10 mg/kg/d) of TRAMP-C2 and B6CaP mouse prostate cancers was also evaluated in S100A9 null C57BL′6J male mice obtained from Dmitry Gabrilovich (Wistar Institute). […] In vitro growth curves were determined as described (Isaacs 2013). Growth response to daily oral TasQ vs. ESATA-20 (both at 10 mg/kg/d) of Myc-CaP-CR mouse prostate cancer was evaluated in syngeneic FVB/NJ castrate male mice from Jackson Laboratory. […]

Compound	water solubility compared with TasQ (Water solubility)	inhibition at 10 µM (HDAC4-NCoR1 complex; at 10 μM, read-out: inhibition of fl-NCoR1 binding to immobilized fl-HDAC4)	IC50 (HDAC4-NCoR1 complex; sigmoidal dose-response fit, read-out: IC50 for competitive inhibition of fl-HDAC4 binding to immobilized NCoR1)	inhibition of tumor growth [1]
COc1cccc2c1c(O)c(C(=O)N(c1ccc(C(F)(F)F)cc1)C1CCCCC1)c(=O)n2C [ESATA-20]	less water soluble than TasQ	–	–	–
COc1cccc2c1c(O)c(C(=O)N(C)c1ccc(C(F)(F)F)cc1)c(=O)n2C [TasQ, Tasquinimod]	–	50%	1.1 µM	> 70%
